Calls of active or inactive are those of the source. The rule behind the calls is not given here.
Tested on: rodent carcinogenicity bioassays, tumor incidence
Assay: CCRIS carcinogenicity studies
Procedure, shortened: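 NCI-built, expert-reviewed records of carcinogenicity and related test outcomes (mutagenicity, tumor promotion/inhibition) compiled from published and report sources, historical span 1985-2011, not updated.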

With `CCN(N=O)C(=O)NCC(C)=O` the carcinogen call (Species: RAT, Strain/Sex: F344/FEMALE, Route: GAVAGE, Dose: 0, 9.5, 19 MG/ML IN CORN OIL/ETHYL ACETATE (2:1) 2/WK FOR 30 WK (STUDY DURATION: LIFETIME), Dose: 0, 9.5, 19 MG/ML IN CORN OIL/ETHYL ACETATE (2:1) 2/WK FOR 30 WK (STUDY DURATION: LIFETIME), Tumor Site: Type of Lesion: LUNG: TUMOR, MAMMARY GLAND: CARCINOMA, UTERUS: TUMOR, FORESTOMACH: TUMOR, SPLEEN: TUMOR, ZYMBAL GLAND: TUMOR, SMALL INTE, Tumor Site: Type of Lesion: LUNG: TUMOR, MAMMARY GLAND: CARCINOMA, UTERUS: TUMOR, FORESTOMACH: TUMOR, SPLEEN: TUMOR, ZYMBAL GLAND: TUMOR, SMALL INTE) was “active; positive”, the carcinogen call (Species: RAT, Strain/Sex: F344/FEMALE, Route: ORAL, Dose: 0, 40, 80 MG/L IN DRINKING WATER 5 D/WK FOR 30 WK (STUDY DURATION: LIFETIME), Dose: 0, 40, 80 MG/L IN DRINKING WATER 5 D/WK FOR 30 WK (STUDY DURATION: LIFETIME), Tumor Site: Type of Lesion: LIVER: TUMOR, LUNG: TUMOR, MAMMARY GLAND: CARCINOMA, UTERUS: TUMOR, THYROID: FOLLICULAR TUMOR, COLON: TUMOR, NERVOUS SYS, Tumor Site: Type of Lesion: LIVER: TUMOR, LUNG: TUMOR, MAMMARY GLAND: CARCINOMA, UTERUS: TUMOR, THYROID: FOLLICULAR TUMOR, COLON: TUMOR, NERVOUS SYS) was “active; positive” and the carcinogen call (Species: RAT, Strain/Sex: F344/MALE, Route: GAVAGE, Dose: 0, 9.5, 19 MG/ML IN CORN OIL/ETHYL ACETATE (2:1) 2/WK FOR 30 WK (STUDY DURATION: LIFETIME), Dose: 0, 9.5, 19 MG/ML IN CORN OIL/ETHYL ACETATE (2:1) 2/WK FOR 30 WK (STUDY DURATION: LIFETIME), Tumor Site: Type of Lesion: LIVER: TUMOR, LUNG: TUMOR, MESOTHELIUM: TUMOR, NERVOUS SYSTEM: TUMOR, THYROID: FOLLICULAR TUMOR, FORESTOMACH: TUMOR, SPL, Tumor Site: Type of Lesion: LIVER: TUMOR, LUNG: TUMOR, MESOTHELIUM: TUMOR, NERVOUS SYSTEM: TUMOR, THYROID: FOLLICULAR TUMOR, FORESTOMACH: TUMOR, SPL) was “active; positive”. For the same compound, the carcinogen call (Species: RAT, Strain/Sex: F344/MALE, Route: ORAL, Dose: 0, 40, 80 MG/L IN DRINKING WATER FOR 5 D/WK FOR 30 WK (STUDY DURATION: LIFETIME), Dose: 0, 40, 80 MG/L IN DRINKING WATER FOR 5 D/WK FOR 30 WK (STUDY DURATION: LIFETIME), Tumor Site: Type of Lesion: LUNG: TUMOR, THYROID: FOLLICULAR TUMOR, COLON: TUMOR, MESOTHELIUM: TUMOR, NERVOUS SYSTEM: TUMOR, SKIN: TUMOR, ZYMBAL GLA, Tumor Site: Type of Lesion: LUNG: TUMOR, THYROID: FOLLICULAR TUMOR, COLON: TUMOR, MESOTHELIUM: TUMOR, NERVOUS SYSTEM: TUMOR, SKIN: TUMOR, ZYMBAL GLA) was “active; positive”.
In the case of `O=C(O)CCl`, the carcinogen call (Species: MOUSE, Strain/Sex: B6C3F1/FEMALE, Route: GAVAGE, Dose: 0, 50, 100 MG/KG IN DEIONIZED WATER 5 D/WK FOR 104 WK (STUDY DURATION: 104 WK), Dose: 0, 50, 100 MG/KG IN DEIONIZED WATER 5 D/WK FOR 104 WK (STUDY DURATION: 104 WK)) is reported as “inactive; negative”, the carcinogen call (Species: MOUSE, Strain/Sex: B6C3F1/MALE, Route: GAVAGE, Dose: 0, 50, 100 MG/KG IN DEIONIZED WATER 5 D/WK FOR 104 WK (STUDY DURATION: 104 WK), Dose: 0, 50, 100 MG/KG IN DEIONIZED WATER 5 D/WK FOR 104 WK (STUDY DURATION: 104 WK)) is reported as “inactive; negative” and the carcinogen call (Species: RAT, Strain/Sex: F344/FEMALE, Route: GAVAGE, Dose: 0, 15, 30 MG/KG IN DEIONIZED WATER 5 D/WK FOR 104 WK (STUDY DURATION: 105 WK), Dose: 0, 15, 30 MG/KG IN DEIONIZED WATER 5 D/WK FOR 104 WK (STUDY DURATION: 105 WK)) is reported as “inactive; negative”. The carcinogen call (Species: RAT, Strain/Sex: F344/MALE, Route: GAVAGE, Dose: 0, 15, 30 MG/KG IN DEIONIZED WATER 5 D/WK FOR 104 WK (STUDY DURATION: 105 WK), Dose: 0, 15, 30 MG/KG IN DEIONIZED WATER 5 D/WK FOR 104 WK (STUDY DURATION: 105 WK)) was “inactive; negative” and the carcinogen call (Species: RAT, Strain/Sex: F344/MALE, Route: ORAL, Dose: O, 0.05, 0.5, 2 G/L IN DRINKING WATER FOR 104 WK, THE 2.5 G/L CONCENTRATION WAS LOWERED TO 1.5 G/L AT 8 WK THEN TO 1 G/L, Dose: O, 0.05, 0.5) was “inactive; negative”.
In the case of `CC(=O)CCNCN=O`, the carcinogen call (Species: HAMSTER, Strain/Sex: SYRIAN/FEMALE, Route: SUBCUTANEOUS, Dose: 20.25, 40.5, 81MG/KG 1/WK FOR LIFE, Dose: 20.25, 40.5, 81MG/KG 1/WK FOR LIFE, Tumor Site: Type of Lesion: NASAL CAVITY: ADENOCARCINOMA, ORAL CAVITY (CHEEK POUCH): SQUAMOUS CELL PAPILLOMA, SQUAMOUS CELL CARCINOMA, COLON: CARCIN, Tumor Site: Type of Lesion: NASAL CAVITY: ADENOCARCINOMA, ORAL CAVITY (CHEEK POUCH): SQUAMOUS CELL PAPILLOMA, SQUAMOUS CELL CARCINOMA, COLON: CARCIN) is reported as “active; positive” and the carcinogen call (Species: HAMSTER, Strain/Sex: SYRIAN/MALE, Route: SUBCUTANEOUS, Dose: 17.63, 35.25, 70.5 MG/KG 1/WKFOR LIFE, Dose: 17.63, 35.25, 70.5 MG/KG 1/WKFOR LIFE, Tumor Site: Type of Lesion: NASAL CAVITY: ADENOCARCINOMA, ORAL CAVITY (CHEEK POUCH): SQUAMOUS CELL PAPILLOMA, SQUAMOUS CELL CARCINOMA, COLON: CARCIN, Tumor Site: Type of Lesion: NASAL CAVITY: ADENOCARCINOMA, ORAL CAVITY (CHEEK POUCH): SQUAMOUS CELL PAPILLOMA, SQUAMOUS CELL CARCINOMA, COLON: CARCIN) is reported as “active; positive”.
With `CC(COc1ccc(C(C)(C)C)cc1)OS(=O)OCCCl` (centres undefined) the carcinogen call (Species: DOG, Strain/Sex: MONGREL/MALE,FEMALE, Route: ORAL, Dose: 0, 500, 828-1420 PPM IN DIET FOR 3.5 YR, Dose: 0, 500, 828-1420 PPM IN DIET FOR 3.5 YR, Tumor Site: Type of Lesion: BILE DUCT: ADENOCARCINOMA, GALL BLADDER: ADENOCARCINOMA) was “active; positive”, the carcinogen call (Species: MOUSE, Strain/Sex: B6C3F1/MALE,FEMALE, Route: GAVAGE/ORAL, Dose: 464 MG/KG FROM D 7-28 OF LIFE THEN 1112 PPM IN DIET, Tumor Site: Type of Lesion: LIVER: HEPATOMA) was “active; positive” and the carcinogen call (Species: RAT, Strain/Sex: WISTAR/MALE,FEMALE, Route: ORAL, Dose: 500, 1580, 5000 PPM IN DIET FOR 2 YR, Dose: 500, 1580, 5000 PPM IN DIET FOR 2 YR, Tumor Site: Type of Lesion: LIVER: HEPATOMA, CHOLANGIOMA) was “active; positive”.
With `ON=C1CCCC1` the carcinogen call (Species: RAT, Strain/Sex: F344/MALE, Route: GAVAGE, Dose: 0, 2 MMOL/KG BW 1/WK FOR 50 WK (STUDY DURATION: 83 WK)) was “inactive; negative”.
With `O=NN1CCNCC1` the carcinogen call (Species: RAT, Strain/Sex: F344/FEMALE, Route: INTRAVESICAL, Dose: 0, 3.8 G (TOTAL DOSE) INJECTED INTO BLADDER 2/WK OVER 48 WK (STUDY DURATION: 102 WK), Tumor Site: Type of Lesion: NASAL CAVITY: TUMOR, BLADDER: TUMOR) was “active; positive”.
With `O=Cc1ccc(CO)o1` the carcinogen call (Species: MOUSE, Strain/Sex: B6C3F1/MALE, Route: INTRAPERITONEAL, Dose: 0, 0.25, 1 UMOL/G BW IN 5 µL DMSO/G BW ONCE, Dose: 0, 0.25, 1 UMOL/G BW IN 5 µL DMSO/G BW ONCE) was “inactive; negative”, the carcinogen call (Species: MOUSE, Strain/Sex: CD-1/FEMALE, Route: DERMAL, Dose: 0, 50 UMOL/0.1 ML DMSO 2/WK FOR 5 WK FOLLOWED 1 WK LATER BY 0.1 ML ACETONE 2/WK FOR 47 WK (STUDY DURATION: 52 WK)) was “inactive; negative” and the carcinogen call (Species: Mouse, Strain/Sex: B6C3F1/ Female (50/Group), Route: Oral, Dose: 0, 188, 375, 750 mg/kg by gavage in deionized water for 2 yr, Dose: 0, 188, 375, 750 mg/kg by gavage in deionized water for 2 yr, Tumor Site: Type of Lesion: Liver: hepatocellular adenoma (14/50, 26/49, 26/50, 6/50)) was “inactive; negative (ntp reports as some evidence based on increased incidences of hepatoce”. For the same compound, the carcinogen call (Species: Mouse, Strain/Sex: B6C3F1/ Male (50/Group), Route: Oral, Dose: 0, 188, 375, 750 mg/kg by gavage in deionized water for 2 yr, Dose: 0, 188, 375, 750 mg/kg by gavage in deionized water for 2 yr) was “inactive; negative”, the carcinogen call (Species: Rat, Strain/Sex: F344/N / Female (50/Group), Route: Oral, Dose: 0, 188, 375, 750 mg/kg by gavage in deionized water for 2 yr, Dose: 0, 188, 375, 750 mg/kg by gavage in deionized water for 2 yr) was “inactive; negative” and the carcinogen call (Species: Rat, Strain/Sex: F344/N / Male (50/Group), Route: Oral, Dose: 0, 188, 375, 750 mg/kg by gavage in deionized water for 2 yr, Dose: 0, 188, 375, 750 mg/kg by gavage in deionized water for 2 yr) was “inactive; negative”.
With `O[C@H]1C=Cc2nc3c(ccc4ccccc43)cc2[C@@H]1O` the carcinogen call (Species: MOUSE, Strain/Sex: SWISS/FEMALE, Route: INTRAPERITONEAL, Dose: 0, 1.05 UMOL GIVEN AS 150 NMOL IN 5 µL DMSO WITHIN 24 HR OF BIRTH, 300 NMOL IN 10 µL DMSO ON D 8 OF LIFE, AND 600 NMOL I, Tumor Site: Type of Lesion: LUNG: ADENOMA) was “active; positive” and the carcinogen call (Species: MOUSE, Strain/Sex: SWISS/MALE, Route: INTRAPERITONEAL, Dose: 0, 1.05 UMOL GIVEN AS 150 NMOL IN 5 µL DMSO WITHIN 24 HR OF BIRTH, 300 NMOL IN 10 µL DMSO ON D 8 OF LIFE, AND 600 NMOL I, Tumor Site: Type of Lesion: LUNG: ADENOMA) was “active; positive”.
